# In patent US10617117B2, “Insect repellent composition and method of use” (NEO-INNOVA HEALTHCARE LIMITED, priority 2015, dated 2020):
# Entries after “also recorded” stand apart in the source; their conditions may differ.
# What was measured:
# [1] = tested on: biting flies, such as a mosquito; details: in vivo; cited from earlier work
# Aedes Aegypti = details: at circa 50% concentrations, FIG. 1; cited from earlier work
# [2] = tested on: Culex spp., Aedes spp., Mansonia spp., and Verrallina spp.; details: compared with Anopheles spp.; cited from earlier work
# [3] = human skin; cited from earlier work
# [4] = tested on: Aedes aegypti female mosquitoes; assay: laboratory arm or hand in cage test (complete protection time); assay type: in vivo; details: Citriodiol as active substance, with vanillin, FIG. 14
# Description: Complete protection times are calculated as the number of minutes (or hours) elapsed between the time of repellent application and the first mosquito landing or probing. Complete Protection Times are reported herein as a median value of protection time given by each individual. Complete Protection Times are abbreviated herein as CPTs. […]
# Complete protection time provided by each product was evaluated by following hand in cage studies as per a modified WHO protocol (HTM/NTD/WHOPES/2009.4).
# Typically, the test consisted of inserting a repellent treated arm into a cage measuring 35 cm on each side, containing laboratory bred 200 numbers of non-blood fed Aedes Aegypti mosquitoes which were approximately 5-7 days old and the elapsed time to first landing or probing (which refers to an insect landing and penetrating the skin with its mouthparts, without ingesting blood) was determined. […]
# Readiness of the mosquitoes to bite (biting pressure) was checked by inserting un-treated arm for 1 minute prior to inserting treated arm at each 30-minute interval. […] Complete protection time was calculated as the number of minutes (or hours) elapsed between the time of repellent application and the first mosquito landing or probing. […]
# [5] = Stability tests, accelerated storage 54° C. for 14 days (discoloration of vanillin); assay type: physicochemical; details: room temperature and 54° C.; antioxidant added to vanillin-containing composition
# Description: […] The front line accelerated conditions recommend testing at 54° C. for 14 days (see BPR 528/2012: Volume I. Part A, Chapter III: Requirements for Biocide Products, Version 1.1 Nov. 2014).
SMILES,CPTs compared with DEET [1],photosensitisation and secondary oxidation (discoloration) of vanillin [5],other results
"CCCCN(CCC(=O)OCC)C(C)=O [IR3535, ethyl butylacetylaminopropionate]",neither ethyl butylacetylaminopropionate (IR3535) nor Picaridin (KBR 3023) has demonstrated meaningful superiority to DEET,–,–
"CCN(CC)C(=O)c1cccc(C)c1 [DEET, N,N-Diethyl-3-methylbenzamide]",–,–,CPT at which activity plateaus (Aedes Aegypti): 5 to 6 h; protection against different mosquito genera [2]: longer against these genera than provided against Anopheles spp.; absorption through skin [3]: absorbed through human skin
O=S([O-])O.[Na+] [sodium bisulphite],–,Lack of photosensitisation and secondary oxidation of vanillin; also recorded: one significant exception,effect of addition of 1% antioxidant on efficacy (CPTs) [4]: still further significant improvement in efficacy
CCCOC(=O)c1cc(O)c(O)c(O)c1 [propyl gallate],–,negative,–
CCC(C)OC(=O)N1CCCCC1CCO (stereo not drawn) [Picaridin],neither ethyl butylacetylaminopropionate (IR3535) nor Picaridin (KBR 3023) has demonstrated meaningful superiority to DEET,–,–
COc1ccc(O)c(C(C)(C)C)c1 [BHA],–,negative,–
